In patent publication US20050209157A1, “Short bioactive peptides and methods for their use” (priority 2001, published 2005):
≈ marks a conversion by molar mass, not a printed value. No end group written: not given here.

Tests used:
[1] = test system: Pseudomonas aeruginosa ATCC 27853; assay: Antimicrobial assay I, modified protocol (tryptic soy broth), MBC; details: minimum bactericidal concentration, Table 4
Method: The preparation of all media, stock solutions, and dilutions took place in a laminar flow hood to prevent contamination. Bacterial cells were freshly grown on antibiotic medium 2 agar slants (pH 7.0 at 25° C.). Bacteria were suspended and diluted in antibiotic medium 3 to about 10^4 cfu/ml and used as the inoculum. Sample solutions (100 μl/well) were added to plates according to the plate layout. Inoculum (100 μl/well) was added to achieve a final concentration of 5×10^3 cfu/ml. Negative controls received 100 μl saline and 100 μl growth medium. Positive controls received 100 μl saline and 100 μl inoculum. Bacterial plates were incubated at 37° C. for 24 hours.
However, the data for Table 4 were obtained with a modified protocol wherein the medium was tryptic soy broth, inocolum strength was approximately 10^4 CFU per ml, and values determined were minimum bactericidal concentrations (MBC) or minimum fungicidal concentrations (MFC).
MBC or MFC values are in μg/mL. E. coli is Escherichia coli ATCC accession number 25922; P. aerug is Pseudomonas aeruginosa ATCC accession number 27853, S. aur. is Stapholococcus aureus ATCC accession number 25923; Candida is Candida albicans ATCC accession number 10231.

[2] = test system: Stapholococcus aureus ATCC 25923; assay: as above; details: minimum bactericidal concentration, Table 4
[3] = test system: Escherichia coli ATCC 25922; assay: as above; details: minimum bactericidal concentration, Table 4
[4] = test system: Candida albicans ATCC 10231; assay: Antimicrobial assay I, modified protocol (tryptic soy broth), MFC; details: minimum fungicidal concentration, Table 4

Row | Compound | MBC P. aerug A.27853 [1] | MBC S. aur A.25923 [2] | MBC E. coli A.25922 [3] | MFC Candida A.10231 [4]
1 | CC[C@H](C)[C@H](NC(=O)[C@H](C)NC(=O)[C@H](CCCNC(=N)N)NC(=O)[C@H](CC(C)C)NC(=O)CNC(=O)[C@@H](NC(=O)[C@H](C)NC(=O)[C@@H](N)Cc1ccccc1)C(C)C)C(=O)N[C@@H](CCCCN)C(=O)N[C@@H](CCCNC(=N)N)C(=O)N[C@@H](C)C(=O)N[C@@H](CC(C)C)C(=O)N[C@@H](CCCCN)C(=O)N[C@@H](CCCCN)C(=O)N[C@@H](CC(C)C)C(=O)N[C@@H](CCCNC(=N)N)C(=O)N[C@@H](CCCNC(=N)N)C(=O)NCC(=O)N[C@H](C(=O)N[C@@H](CCCNC(=N)N)C(=O)N[C@@H](CCCCN)C(=O)N[C@H](C(=O)N[C@@H](C)C(=O)N[C@@H](CCCCN)C(=O)N[C@@H](CC(=O)O)C(=O)N[C@@H](CC(C)C)C(N)=O)C(C)C)C(C)C [compound 157] | >250 µg/mL | >250 µg/mL | 75 µg/mL (≈ 25.3 µM) | >250 µg/mL
2 | FAKLFAKAFKKAL-NH2 [compound 117] | INACT | INACT | INACT | INACT
3 | CC(C)C[C@H](NC(=O)[C@H](CCCCN)NC(=O)[C@H](CC(C)C)NC(=O)[C@H](C)NC(=O)[C@H](CCCCN)NC(=O)[C@H](C)NC(=O)[C@H](CC(C)C)NC(=O)[C@H](CC(C)C)NC(=O)[C@H](CCCCN)NC(=O)[C@H](CCCCN)NC(=O)[C@H](C)NC(=O)[C@@H](N)Cc1ccccc1)C(N)=O [compound 110] | >50 µg/mL | >50 µg/mL | 8 µg/mL (≈ 5.96 µM) | >50 µg/mL
4 | CC(C)C[C@H](NC(=O)[C@H](CCCCN)NC(=O)[C@H](Cc1c[nH]c2ccccc12)NC(=O)[C@H](CCCCN)NC(=O)[C@H](CCCCN)NC(=O)[C@H](C)NC(=O)[C@H](CC(C)C)NC(=O)[C@H](CCCCN)NC(=O)[C@H](CCCCN)NC(=O)[C@H](C)NC(=O)[C@H](CC(C)C)NC(=O)[C@H](CCCCN)NC(=O)[C@H](CCCCN)NC(=O)[C@H](CC(C)C)NC(=O)[C@H](CCCCN)NC(=O)[C@H](CCCCN)NC(=O)[C@H](C)NC(=O)[C@H](CC(C)C)NC(=O)[C@H](CCCCN)NC(=O)[C@H](CCCCN)NC(=O)[C@H](C)NC(=O)[C@@H](N)Cc1ccccc1)C(=O)O [compound 72] | 40 µg/mL (≈ 15.3 µM) | >50 µg/mL | >50 µg/mL | >50 µg/mL
5 | FAFAKIIAKIAKKII-NH2 [compound 140] | INACT | INACT | INACT | INACT
6 | FGKGIGKVGKKLL-NH2 [compound 132] | INACT | INACT | INACT | INACT
7 | FAFGKGIGKVGKKLL-NH2 [compound 133] | INACT | INACT | INACT | INACT
8 | CC(C)C[C@H](NC(=O)[C@H](C)NC(=O)[C@@H](N)Cc1ccccc1)C(=O)N[C@@H](C)C(=O)N[C@@H](CC(C)C)C(=O)N[C@@H](CCCCN)C(=O)N[C@@H](C)C(=O)N[C@@H](CC(C)C)C(=O)N[C@@H](CCCCN)C(=O)N[C@@H](CCCCN)C(N)=O [compound 169] | >250 µg/mL | >250 µg/mL | 200 µg/mL (≈ 182 µM) | 75 µg/mL (≈ 68.1 µM)
9 | KAKLF-NH2 [compound 130] | INACT | INACT | INACT | INACT
10 | CC(C)C[C@H](NC(=O)[C@H](CC(C)C)NC(=O)[C@H](CCCCN)NC(=O)[C@H](CCCCN)NC(=O)[C@H](C)NC(=O)[C@H](CC(C)C)NC(=O)[C@H](CCCCN)NC(=O)[C@H](CCCCN)NC(=O)[C@H](C)NC(=O)[C@@H](N)Cc1ccccc1)C(N)=O [compound 59] | >50 µg/mL | >50 µg/mL | >50 µg/mL | >50 µg/mL
